Test results reported in publication PMC11284792, “Backbone-Determined Antiarrhythmic Structure–Activity Relationships for a Mirror Image, Oligomeric Depsipeptide Natural Product” (Journal of Medicinal Chemistry, 2024).
Read-outs that look alike come from different tables or passages of the source.

Details: amide bond, 24-membered ring, 3 steps
[1] = the molecule shown is the open-chain precursor

Substance | ring closure, yield after HPLC [1] [%] | also measured
(3R,6S,9R,12S,15R,18S,21R,24S)-3,4,9,10,13,15,16,19,21,22-decamethyl-6,12,18,24-tetrapentyl-1,7-dioxa-4,10,13,16,19,22-hexaazacyclotetracosan-2,5,8,11,14,17,20,23-octaone |  | ring closure, yield after HPLC (PyBOP/DIPEA, DMF, 2.9 mM): 4%
H-dMeAla-MeAhp-dMeAla-MeAhp-dMeAla-MeAhp-dMeAla-MeAhp-OH? | 8 | 
(3R,6S,9R,12S,15R,18S,21R,24S)-1,3,4,7,9,10,13,15,16,19,21,22-dodecamethyl-6,12,18,24-tetrapentyl-1,4,7,10,13,16,19,22-octaazacyclotetracosan-2,5,8,11,14,17,20,23-octaone |  | ring closure, yield after HPLC (PyBOP/DIPEA, DMF): 8%
H-dMeAla-MeAhp-dMeAla-Ahp-dMeAla-Ahp-dMeAla-Ahp-OH | 9 | 
(3R,6S,9R,12S,15R,18S,21R,24S)-3,4,7,9,10,13,15,16,19,21,22-undecamethyl-6,12,18,24-tetrapentyl-1-oxa-4,7,10,13,16,19,22-heptaazacyclotetracosan-2,5,8,11,14,17,20,23-octaone |  | ring closure, yield after HPLC (PyBOP/DIPEA, DMF, 5.0 mM): 16%
H-dMeAla-Hhp-dMeAla-Ahp-dMeAla-Ahp-dMeAla-Ahp-OH? | 7 | 
H-dMeAla-Ahp-dMeAla-Hhp-dMeAla-Ahp-dMeAla-Hhp-OH | 10 | 
H-dAla-MeAhp-dAla-MeAhp-dMeAla-MeAhp-dMeAla-MeAhp-OH? | 8 | 
(3R,6S,9R,12S,15R,18S,21R,24S)-1,3,4,7,9,10,13,15,16,19,21-undecamethyl-6,12,18,24-tetrapentyl-1,4,7,10,13,16,19,22-octaazacyclotetracosan-2,5,8,11,14,17,20,23-octaone |  | ring closure, yield after HPLC (PyBOP/DIPEA, DMF, 4.6 mM): 7.5%
(3S,6R,9S,12R,15S,18R,21S,24R)-1,6,7,12,13,18,19,24-Octamethyl-3,9,15,21-tetrapentyl-1,4,7,10,13,16,19,22-octaazacyclotetracosan-2,5,8,11,14,17,20,23-octaone |  | ring closure, yield after HPLC (PyBOP/DIEA, DMF, 4.6 mM, 0.0 °C): 11%
H-dMeAla-MeAhp-dMeAla-Hhp-dMeAla-Hhp-dMeAla-Hhp-OH | 5 | 
H-dMeAla-MeAhp-dAla-MeAhp-dMeAla-MeAhp-dAla-MeAhp-OH | 7 | 
H-dAla-MeAhp-dMeAla-MeAhp-dMeAla-MeAhp-dMeAla-MeAhp-OH? | 8 | 
H-dAla-MeAhp-dAla-MeAhp-dAla-MeAhp-dAla-MeAhp-OH | 7 | 
H-dMeAla-Hhp-dMeAla-Hhp-dMeAla-Ahp-dMeAla-Ahp-OH? | 7 | 
H-dAla-Hhp-dAla-Hhp-dMeAla-Hhp-dMeAla-Hhp-OH? |  | ring closure, yield after HPLC (the molecule shown is the open-chain precursor, PyBOP): 11%
H-dMeAla-MeAhp-dMeAla-Ahp-dMeAla-MeAhp-dMeAla-Ahp-OH | 7 | 
